From ChEMBL document CHEMBL1134837, “A conformational and structure-activity relationship study of cytotoxic 3,5-bis(arylidene)-4-piperidones and related N-acryloyl analogues” (J Med Chem, 2001) come the findings set out here.

Several values for one entry are separate records, joined by “and”; a condition that tells them apart may be missing. Identical values can stand only once.

Assay [1] is described as follows: Cytotoxicity against human Molt 4/C8 cells. It counts as functional, cell-based. The note with it: Molt4/C8.
Assay [2] concerns L1210. Description: Inhibitory effect on the biosyntheses of protein in murine L1210 cells. Format: functional, cell-based. The note with it: Mus musculus.
Another assay has as its system P388. Description: Cytotoxicity against murine P388 cells. It counts as functional, cell-based. The settings on record: Mus musculus.
Assay [3] concerns L1210. Description: Inhibitory effect on the biosyntheses of DNA in murine L1210 cells. Format: functional, cell-based. The settings on record: Mus musculus.
Assay [4] has as its system L1210. Kind of assay: Inhibitory effect on the biosyntheses of RNA in murine L1210 cells. Format: functional, cell-based. The note with it: Mus musculus.
The test system of the next assay is CCRF-CEM. Kind of assay: Cytotoxicity against CEM T-lymphocytes. It counts as functional, cell-based. The settings on record: Homo sapiens.
A short description of assay [5]: Average potency of all four cell lines (P388 cell line, L1210 cell line, Molt 4/C8 cell line, CEM T-lymphocytes). Format: functional. Also noted: unit not given here.
Assay [6] relates to L1210. Kind of assay: Cytotoxicity against murine L1210 cells. Format: functional, cell-based. The note with it: Mus musculus.
For assay [7], the system named is Jurkat. Description: (§1) Cytotoxicity against human Jurkat T cells. It counts as functional.
The test system of assay [8] is Jurkat. Described as §1. It counts as functional, cell-based.
Assay [9] can be described thus: The apoptotic index [(number of human jurkat cells with apoptotic nuclei/number of cells counted) 100]. It counts as functional.
The subject of assay [10] is Jurkat. Description: Inhibitory effect on the biosyntheses of protein using human Jurkat T cells. Format: functional.
The test system of assay [11] is Jurkat. Kind of assay: Inhibitory effect on the biosyntheses of RNA using human Jurkat T cells. Format: functional.

As to `O=C1/C(=C/c2ccc(N3CC3)cc2)CNC/C1=C\c1ccc(N2CC2)cc1`, the IC50 (usually the concentration at which inhibition is half-maximal) in assay [1] is 226000 nM; in the assay on L1210 [2] it was 320000 nM; in the assay on P388 it was 640 nM; in the assay with L1210 [3] it was more than 500000 nM; in the assay with L1210 [4], 336000 nM; with CCRF-CEM, 162000 nM. In the assay on L1210 [6], this compound had a half-maximal inhibitory concentration (IC50) of 240000 nM. The compound further showed an AP in assay [5] of 157.
As to `COc1ccc(/C=C2\CNC/C(=C\c3ccc(OC)cc3)C2=O)cc1`, the IC50 with P388 came out at 1540 nM. In assay [5], this compound displayed an AP of 174.
With `C=CC(=O)N1C/C(=C\c2ccc(N3CC3)cc2)C(=O)/C(=C/c2ccc(N3CC3)cc2)C1`, the 50% inhibitory concentration (IC50) in assay [1] is 369000 nM; with P388 it was 43300 nM; in the assay with CCRF-CEM it was more than 500000 nM; in the assay with L1210 [6], more than 500000 nM. The same compound displayed an AP in [5] of more than 353.
Regarding `C=CC(=O)N1C/C(=C\c2ccc(Cl)c(Cl)c2)C(=O)/C(=C/c2ccc(Cl)c(Cl)c2)C1`, the IC50 in [1] amounted to 1040 nM; in the assay with P388 it was 50 nM; in the assay with Jurkat [8], 580 nM; in the assay on CCRF-CEM, 1080 nM; in the assay with L1210 [6] it was 1520 nM. For the same compound, the 80% effect concentration (IC80) (usually the concentration at which the effect reaches the 80% level) in the assay on Jurkat [7] was determined as 940 nM. In [5], this compound had an AP of 0.92. In addition, in assay [9], the Apoptotic index is recorded as 63.5. The Inhibition (usually the drop in the measured response relative to a control, in per cent) stood at 58.1% in the assay on Jurkat [10] and 67.6% in the assay on Jurkat [11].
Consider `C=CC(=O)N1C/C(=C\c2ccc(Cl)cc2)C(=O)/C(=C/c2ccc(Cl)cc2)C1`, for which the half-maximal inhibitory concentration (IC50) in assay [1] is 440 nM; with P388 it was 150 nM; in the assay on CCRF-CEM, 490 nM; with L1210 [6] it was 1960 nM. In addition, the AP in assay [5] amounted to 0.76.
Regarding `O=C1/C(=C/c2ccccc2)CNC/C1=C\c1ccccc1`, in the assay with P388, 770 nM corresponded to half-maximal inhibition (IC50). In [5], this compound returned an AP of 3.03.
For the compound `O=C1/C(=C/c2ccc(Cl)c(Cl)c2)CNC/C1=C\c1ccc(Cl)c(Cl)c1`, the 50% inhibitory concentration (IC50) in assay [1] is 40200 nM; in the assay with P388, 1010 nM; with Jurkat [8], 3090 nM; with CCRF-CEM it was 20800 nM; with L1210 [6], 129000 nM. In the assay with Jurkat [7], this compound displayed an IC80 of 4830 nM. In assay [5], this compound had an AP of 47.8. In assay [9], the Apoptotic index came to 48.3. For the same compound, in the assay on Jurkat [11], the Inhibition was 26.4% and 31.1%.
Consider `C=CC(=O)N1C/C(=C\c2ccc(OC)cc2)C(=O)/C(=C/c2ccc(OC)cc2)C1`, for which the half-inhibitory concentration (IC50) came out at 2270 nM in assay [1], 680 nM in the assay on P388, 2670 nM with CCRF-CEM and 11800 nM with L1210 [6]. The AP in [5] worked out at 4.36.
For `C=CC(=O)N1C/C(=C\c2ccccc2)C(=O)/C(=C/c2ccccc2)C1` the same measures were 1420 nM, 500 nM, 1480 nM, 8690 nM and 3.3.
Take `C=CC(=O)N1C/C(=C\c2ccc([N+](=O)[O-])cc2)C(=O)/C(=C/c2ccc([N+](=O)[O-])cc2)C1`: the IC50 in assay [1] came out at 150 nM; with L1210 [2] it was 3210 nM; in the assay on P388, 50 nM; in the assay with L1210 [3], 2770 nM; with L1210 [4], 5730 nM; with CCRF-CEM, 260 nM. The IC50 in the assay on L1210 [6] worked out at 420 nM. This compound had an AP in assay [5] of 0.22.
`O=C1/C(=C/c2ccc(Cl)cc2)CNC/C1=C\c1ccc(Cl)cc1` came in with an IC50 in the assay with P388 of 740 nM. In [5], this compound gave an AP of 16.1.
Take `O=C1/C(=C/c2ccc([N+](=O)[O-])cc2)CNC/C1=C\c1ccc([N+](=O)[O-])cc1`: the IC50 in [1] was determined as 8280 nM; in the assay with L1210 [2], 214000 nM; with P388, 200 nM; with L1210 [3], 228000 nM; in the assay on L1210 [4], 276000 nM; with CCRF-CEM, 4470 nM. In addition, in the assay with L1210 [6], it took 32900 nM to reach half-maximal inhibition (IC50). Also, the AP in assay [5] is recorded as 11.5.
Take `C=CC(=O)N1C/C(=C\c2ccc(F)cc2)C(=O)/C(=C/c2ccc(F)cc2)C1`: the 50% inhibitory concentration (IC50) in assay [1] stood at 410 nM; in the assay with P388 it was 270 nM; in the assay with CCRF-CEM, 800 nM; with L1210 [6], 3890 nM. This compound also registered an AP in assay [5] of 1.34.
In the assay on P388, `O=C1/C(=C/c2ccc(F)cc2)CNC/C1=C\c1ccc(F)cc1` came in with an IC50 of 600 nM. Further, the AP in [5] is on record as 11.
With `N[C@@H](Cc1ccc(N(CCCl)CCCl)cc1)C(=O)O`, the figures for the IC50 with L1210 [2], in the assay with L1210 [3] and in the assay on L1210 [4] were 94600 nM, more than 100000 nM and more than 100000 nM, respectively. This compound showed an AP in assay [5] of 2.02. For the same compound, the Inhibition in the assay with Jurkat [10] stood at 17.3%; in the assay on Jurkat [11], 85.1%.
